Results from the CheMixHub viscosity set.
± gives the uncertainty stated by the source.

Assay: xn = mol fraction of the nth substance listed

CCOCCO + CCCCCCCCCCCC
viscosity [mPa·s], 101.33 kPa
Conditions	x1 = 0.1001	x1 = 0.1987	x1 = 0.3009	x1 = 0.3972	x1 = 0.5014	x1 = 0.5996	x1 = 0.6933	x1 = 0.7988	x1 = 0.8984
298.15 K	1.288 ± 0.031	1.294 ± 0.031	1.321 ± 0.032	1.339 ± 0.032	1.379 ± 0.033	1.412 ± 0.034	1.453 ± 0.035	1.529 ± 0.036	1.636 ± 0.039
303.15 K	1.171 ± 0.029	1.174 ± 0.029	1.195 ± 0.029	1.223 ± 0.03	1.256 ± 0.03	1.284 ± 0.031	1.317 ± 0.032	1.387 ± 0.033	1.465 ± 0.035
308.15 K	1.075 ± 0.027	1.076 ± 0.027	1.09 ± 0.027	1.115 ± 0.027	1.138 ± 0.028	1.166 ± 0.028	1.191 ± 0.029	1.254 ± 0.03	1.316 ± 0.032
313.15 K	0.986 ± 0.025	0.987 ± 0.025	0.997 ± 0.025	1.02 ± 0.025	1.045 ± 0.026	1.063 ± 0.026	1.082 ± 0.027	1.139 ± 0.028	1.191 ± 0.029

CCOCCO + CCCCO
viscosity [mPa·s]
Conditions	298.15 K	303.15 K	308.15 K	313.15 K
101 kPa, x1 = 0.0837	2.434 ± 0.021	–	–	–
101 kPa, x1 = 0.1706	2.312 ± 0.024	–	–	–
101 kPa, x1 = 0.2606	2.206 ± 0.026	–	–	–
101 kPa, x1 = 0.3541	2.113 ± 0.028	–	–	–
101 kPa, x1 = 0.4513	2.035 ± 0.031	–	–	–
101 kPa, x1 = 0.5523	1.984 ± 0.034	–	–	–
101 kPa, x1 = 0.6574	1.949 ± 0.037	–	–	–
101 kPa, x1 = 0.7669	1.925 ± 0.041	–	–	–
101 kPa, x1 = 0.881	1.902 ± 0.044	–	–	–
101.33 kPa, x1 = 0.1017	2.284 ± 0.014	1.999 ± 0.012	1.771 ± 0.011	1.565 ± 0.01
101.33 kPa, x1 = 0.2007	2.13 ± 0.013	1.887 ± 0.012	1.671 ± 0.011	1.49 ± 0.01
101.33 kPa, x1 = 0.2996	2.015 ± 0.013	1.787 ± 0.011	1.589 ± 0.01	1.42 ± 0.009
101.33 kPa, x1 = 0.4028	1.958 ± 0.013	1.731 ± 0.011	1.546 ± 0.01	1.378 ± 0.009
101.33 kPa, x1 = 0.5032	1.891 ± 0.012	1.677 ± 0.011	1.499 ± 0.01	1.34 ± 0.009
101.33 kPa, x1 = 0.6036	1.86 ± 0.012	1.656 ± 0.011	1.48 ± 0.01	1.331 ± 0.009
101.33 kPa, x1 = 0.6986	1.838 ± 0.012	1.634 ± 0.011	1.462 ± 0.01	1.31 ± 0.009
101.33 kPa, x1 = 0.8029	1.829 ± 0.013	1.63 ± 0.011	1.458 ± 0.01	1.314 ± 0.009
101.33 kPa, x1 = 0.9	1.822 ± 0.013	1.629 ± 0.011	1.462 ± 0.01	1.309 ± 0.009

CCOCCO + CCCCCCCCO
298.15 K, 101 kPa
Conditions	viscosity [mPa·s]
x1 = 0.1384	6.062 ± 0.057
x1 = 0.2654	5.061 ± 0.059
x1 = 0.3825	4.268 ± 0.059
x1 = 0.4907	3.649 ± 0.058
x1 = 0.591	3.172 ± 0.056
x1 = 0.6843	2.805 ± 0.055
x1 = 0.7713	2.504 ± 0.053
x1 = 0.8525	2.266 ± 0.052
x1 = 0.9286	2.078 ± 0.05

CC(C)CCO + COc1ccccc1
viscosity [mPa·s], 101.33 kPa
Conditions	x2 = 0.1002	x2 = 0.2	x2 = 0.3005	x2 = 0.3997	x2 = 0.5004	x2 = 0.6014	x2 = 0.7004	x2 = 0.8003	x2 = 0.9008
303.15 K	2.52 ± 0.03	2.023 ± 0.024	1.657 ± 0.02	1.401 ± 0.017	1.216 ± 0.015	1.087 ± 0.013	0.999 ± 0.012	0.944 ± 0.011	0.916 ± 0.011
313.15 K	1.905 ± 0.023	1.545 ± 0.018	1.283 ± 0.015	1.101 ± 0.013	0.974 ± 0.012	0.893 ± 0.011	0.843 ± 0.01	0.816 ± 0.01	0.801 ± 0.01
323.15 K	1.484 ± 0.018	1.224 ± 0.015	1.036 ± 0.012	0.908 ± 0.011	0.823 ± 0.01	0.769 ± 0.009	0.735 ± 0.009	0.715 ± 0.009	0.701 ± 0.009
